How the values were obtained:
P-gp = P-gp (Homo sapiens, UniProt P08183); experiment: Rhodamine 123 accumulation assay (P-gp activity, flow cytometry); type: cell-based; set-up: P-gp overexpressing multidrug resistant DLD1-TxR cells were selected by continuous exposure to stepwise increasing concentrations of paclitaxel from DLD1 cells; endogenous in cells; host or cells: NCI-H460/R and DLD1-TxR (drug-selected MDR human cancer cells); conditions: DLD1-TxR cells, 30 min, Figure 3a
Procedure: To study the effect of Hsp90 inhibitors on P-gp activity in MDR cancer cells, intracellular accumulation of the P-gp substrate rhodamine 123 (Rho 123) was analyzed by flow cytometry after 30 min treatment (Figure 3a). A well-known inhibitor of P-gp activity, tariquidar (TQ), was included as a positive control.
The accumulation of Rho 123, a fluorescent P-gp substrate, was measured by flow cytometry. The intensity of the fluorescence is proportional to Rho 123 accumulation in the cell. All cell lines were seeded in adherent 6-well plates and grown overnight. DLD1-TxR and NCI-H460/R cells were treated for 30 min with the following concentrations of Hsp90 inhibitors: 500 nM compound 3, 1 µM compound 4, 10 µM compound 5, 500 nM compound 6, 500 nM compound 7, 1 µM compound 8, 500 nM compound 9, 1 µM compound 10, 1 µM compound 13, 10 µM compound 14, 100 nM compound 15. TQ (10 nM) was used as a positive control for Rho 123 accumulation. Rho 123 (5 μM) was simultaneously added with the investigated compounds and the cells were incubated at 37 °C in 5% CO2 for 30 min. The cells were then trypsinized, pelleted by centrifugation, washed with PBS and placed in ice-cold PBS. The samples were kept on ice in the dark until the analysis on CyFlow Space Partec flow cytometer (Sysmex Partec GmbH, Görlitz, Germany). The fluorescence of Rho 123 was detected on fluorescence channel 1 (FL1-H) at 530 nm. A minimum of 10,000 events were collected for each sample and the obtained results were analyzed using Summit software.

DLD1-TxR cells = experiment: MTT assay, cell growth inhibition, DLD1-TxR (MDR); type: cell-based, human; conditions: 72 h
Procedure: (§1) A series of 3-aryl-naphtho[2,3-d]isoxazole-4,9-diones were synthesized (Scheme 1, Figure 1) and their growth inhibition activity was tested in vitro on human non-small cell lung carcinoma NCI-H460, colorectal carcinoma DLD1 and their corresponding MDR cells (NCI-H460/R and DLD1-TxR, respectively), as well as normal embryonic lung fibroblasts MRC-5. The differences in cell growth inhibition between cancer and normal cells obtained by the MTT assay after 72 h treatment are presented in Table 1. The effect of compounds is presented as IC50 values that correspond to the 50% of cell growth inhibition.
(§2) Human colorectal carcinoma (DLD1), non-small cell lung carcinoma (NCI-H460), and normal embryonic lung fibroblast (MRC-5) cell lines were purchased from the American Type Culture Collection, Rockville, MD. P-gp overexpressing multidrug resistant DLD1-TxR cells were selected by continuous exposure to stepwise increasing concentrations of paclitaxel from DLD1 cells, while NCI-H460/R cells were selected from NCI-H460 cells after DOX selective pressure. MDR cancer cell lines, DLD1-TxR and NCI-H460/R, and their sensitive counterparts were maintained in RPMI 1640 medium supplemented with 10% FBS, 2 mM L-glutamine, and 10,000 U/mL penicillin, 10 mg/mL streptomycin, 25 mg/mL amphotericin B solutions. MRC-5 cells were cultured in DMEM supplemented with 10% FBS, 4 g/L glucose, 2 mM L-glutamine and 5000 U/mL penicillin, 5 mg/mL streptomycin solution. All cell lines were sub-cultured at 72 h intervals using 0.25% trypsin/EDTA and seeded into a fresh medium at 8000 cells/cm^2. All cell lines were maintained at 37 °C in a humidified 5% CO2 atmosphere.
(§3) Cell viability was assessed by the MTT assay (AppliChem GmbH, Darmstadt, Germany). Cells grown in 25 cm^2 tissue flasks were trypsinized and 1000 cells/well were seeded into flat-bottomed 96-well tissue culture plates and incubated overnight. Subsequently, the cells were treated with increasing concentrations of Hsp90 inhibitors for 72 h: compound 3 (0.1–2.5 µM), compound 4 (0.25–5 µM), compound 5 (0.5–25 µM), compound 6 (50–1000 nM), compound 7 (10–250 nM), compound 8 (0.25–5 µM), compound 9 (10–250 nM), compound 10 (0.5–25 µM), compound 13 (0.5–10 µM), compound 14 (1–25 µM), and compound 15 (10–250 nM). […] After treatment, MTT was added to each well in a final concentration of 0.2 mg/mL for 4 h. Formazan product was dissolved in 200 µl of DMSO, and the absorbance was measured at 540 nm using an automatic LKB 5060-006 Micro Plate Reader (Vienna, Austria). IC50 value was defined as a concentration of the drug that inhibited cell growth by 50% and was calculated by nonlinear regression analysis using GraphPad Prism 6.0 for Windows (La Jolla, CA, USA). Relative selectivity towards cancer cells was calculated as a relation between IC50 value obtained in MRC-5 cells and an average IC50 value from four tested cancer cell lines.

DLD1 cells = experiment: MTT assay, cell growth inhibition, DLD1; type: cell-based; conditions: Homo sapiens, DLD-1, 72 h
Procedure: as §1, §3

[1] = tested on: NCI-H460, NCI-H460/R, DLD1, DLD1-TxR cells; experiment: MTT assay, grouping of inhibitors by IC50 over the cancer cell lines; type: cell-based; conditions: Homo sapiens, Figure 2b, read-out: IC50 values (grouping for Pearson correlation)
Procedure: When the IC50 values obtained by the MTT assay were compared to Hsp90 affinity binding IC50 values (Table 1), a positive Pearson correlation (r > 0.5) was found for all cancer cell lines (Figure 2b).
as §3

Hsp90 = tested on: Hsp90; set-up: method as in PMID 22538015; conditions: read-out: Hsp90 Affinity binding; cited from earlier work
NCI-H460/R cells [2] = experiment: MTT assay, cell growth inhibition, NCI-H460/R (MDR); type: cell-based, human
Procedure: as §1, §2, §3

MRC-5 cells = experiment: MTT assay, normal embryonic lung fibroblasts MRC-5; type: cell-based, human
Procedure: as §1, §3

NCI-H460 cells = experiment: MTT assay, cell growth inhibition, NCI-H460; type: cell-based; conditions: Homo sapiens, 72 h, three independent experiments
Procedure: as §1, §3

P-gp expression = experiment: Flow cytometric analysis of P-gp expression; type: cell-based, human; conditions: 72 h; 5 µM 5, 200 nM 7, 100 nM 9, 10 nM TQ, 50 nM DOX, 50 nM PTX
Procedure: P-glycoprotein expression level in NCI-H460, NCI-H460/R, DLD1, and DLD1-TxR and cells was measured by flow cytometry. All cell lines were seeded in adherent 6-well plates and treated with Hsp90 inhibitors for 72 h at the following concentrations: 5 µM compound 5, 200 nM compound 7, 100 nM compound 9 (NCI-H460 and DLD1), and 10 µM compound 5, 500 nM compound 7, 500 nM compound 9 (NCI-H460/R and DLD1-TxR). Cells were also treated with 10 nM TQ, a non-competitive P-gp inhibitor, which served as a positive control. In addition, sensitive cells (NCI-H460 and DLD1) were treated with 50 nM DOX and 50 nM PTX that served as positive controls for the induction of P-gp expression. Then, cells were collected by trypsinization, washed with PBS, and directly immunostained by FITC-conjugated anti-P-gp antibody according to the manufacturer’s protocol. The samples were kept in the dark until the analysis on CyFlow Space Partec flow cytometer (Sysmex Partec GmbH, Görlitz, Germany). The fluorescence of FITC-conjugated anti-P-gp was detected on fluorescence channel 1 (FL1-H) at 530 nm. A minimum of 10,000 events were collected for each sample (the gate excluded cell debris and dead cells) and the obtained results were analyzed with Summit software v4.3 (Dako Colorado Inc., Fort Collins, CO, USA).

NCI-H460/R cells [3] = experiment: Combined treatment of compound 5 with DOX, MTT, median effect analysis; type: cell-based, human; conditions: Homo sapiens, NCI-H460, 72 h, DOX alone, 72 h
Procedure: The combined effects of compound 5 with DOX as well as with PTX were studied in NCI-H460/R and DLD1-TxR cells, respectively, by MTT assay. In simultaneous treatments that lasted 72 h in NCI-H460/R cells, three concentrations of compound 5 (2.5, 5, and 10 µM) were combined with increasing concentrations of DOX (250, 500 and 1000 nM), while in DLD1-TxR cells different concentrations of compound 5 (1, 2.5, and 5 µM) were combined with increasing concentrations of PTX (100, 250 and 500 nM). The nature of the interaction between Hsp90 inhibitors and DOX/PTX was analyzed with CalcuSyn software v1.1 (Biosoft, Cambridge, UK) that uses the Combination Index method based on the multiple drug effect equation [54]. Three data points were used for each single drug in each experiment. The non-constant ratio combination was chosen to assess the effect of both drugs in combination. The results are presented in a fraction-affected CI graph. Values of CI < 1 point to a pronounced additive effect or synergism (the smaller value, the greater the degree of synergy). A value of CI = 1 indicates an additive effect, while values of CI > 1 point to an antagonistic effect.

Chain of P-gp (P08183 whole entry): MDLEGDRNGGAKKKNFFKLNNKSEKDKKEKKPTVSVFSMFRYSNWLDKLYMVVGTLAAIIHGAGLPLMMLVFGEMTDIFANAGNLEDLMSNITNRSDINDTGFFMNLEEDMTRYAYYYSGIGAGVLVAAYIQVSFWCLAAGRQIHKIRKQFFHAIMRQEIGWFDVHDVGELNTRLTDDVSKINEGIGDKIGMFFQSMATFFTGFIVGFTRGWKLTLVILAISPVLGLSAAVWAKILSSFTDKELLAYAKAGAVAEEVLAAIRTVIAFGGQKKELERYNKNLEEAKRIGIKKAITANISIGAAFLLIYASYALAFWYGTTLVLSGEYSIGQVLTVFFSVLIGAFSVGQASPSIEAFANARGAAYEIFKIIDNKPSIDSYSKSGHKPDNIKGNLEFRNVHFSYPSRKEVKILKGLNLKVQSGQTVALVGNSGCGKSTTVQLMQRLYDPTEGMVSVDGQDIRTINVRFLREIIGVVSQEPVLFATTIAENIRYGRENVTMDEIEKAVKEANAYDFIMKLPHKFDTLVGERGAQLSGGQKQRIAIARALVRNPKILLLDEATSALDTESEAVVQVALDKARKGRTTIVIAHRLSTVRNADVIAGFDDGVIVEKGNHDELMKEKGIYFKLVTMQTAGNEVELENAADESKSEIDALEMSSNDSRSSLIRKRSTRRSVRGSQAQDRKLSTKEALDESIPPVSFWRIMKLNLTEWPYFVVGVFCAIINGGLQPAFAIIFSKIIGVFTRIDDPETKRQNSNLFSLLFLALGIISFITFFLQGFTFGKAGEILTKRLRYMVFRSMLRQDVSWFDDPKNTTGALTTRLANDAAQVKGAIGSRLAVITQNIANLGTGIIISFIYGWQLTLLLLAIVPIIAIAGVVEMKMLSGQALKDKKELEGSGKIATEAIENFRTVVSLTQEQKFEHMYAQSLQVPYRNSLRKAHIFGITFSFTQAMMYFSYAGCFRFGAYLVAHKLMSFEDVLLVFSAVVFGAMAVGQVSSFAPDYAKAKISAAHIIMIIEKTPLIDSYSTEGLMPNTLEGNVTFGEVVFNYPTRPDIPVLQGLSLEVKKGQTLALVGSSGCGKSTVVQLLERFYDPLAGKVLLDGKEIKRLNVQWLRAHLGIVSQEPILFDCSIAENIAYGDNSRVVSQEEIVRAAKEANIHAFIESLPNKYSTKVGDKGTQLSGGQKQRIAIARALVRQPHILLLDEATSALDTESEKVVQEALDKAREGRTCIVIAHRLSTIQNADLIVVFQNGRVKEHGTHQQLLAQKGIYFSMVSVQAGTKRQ

Compound	P-gp activity / Rho 123 accumulation in DLD1-TxR (P-gp)	Efficacy in MDR DLD1-TxR cells compared with sensitive DLD1 (DLD1-TxR cells)	IC50 (DLD1-TxR cells; Homo sapiens, MDR cells) [nM]	IC50 (DLD1 cells) [nM]	IC50 [1] [nM]	IC50 (Hsp90) [nM]	Efficacy in MDR NCI-H460/R cells compared with sensitive NCI-H460 (NCI-H460/R cells [2]; 72 h)	IC50 (NCI-H460/R cells [2]; Homo sapiens, NCI-H460, 72 h, MDR cells) [nM]	IC50 (MRC-5 cells; Homo sapiens, MRC5, MTT, 72 h, normal fibroblasts, read-out: Cell growth inhibition IC50, MRC-5) [nM]	Relative Selectivity (MRC-5 cells; IC50 in MRC-5 cells / average IC50 of four cancer cell lines)	IC50 (NCI-H460 cells) [nM]	Change in P-gp expression, DLD1 (P-gp expression)	Change in P-gp expression, NCI-H460 (P-gp expression)	IC50 (NCI-H460/R cells [3]) [nM]
CC(=O)Oc1cccc2c1C(=O)c1c(-c3ccncc3)noc1C2=O [Compound 15]	maintained a certain activity	lower	193 ± 7	44 ± 1	< 1000	84	maintained	39 ± 1	250 ± 14	3.05	52 ± 2			
COc1cccc2c1C(=O)c1c(O)c3c(c(O)c1C2=O)C[C@@](O)(C(=O)CO)C[C@@H]3O[C@H]1C[C@H](N)[C@H](O)[C@H](C)O1 [DOX, doxorubicin]												significantly increased P-gp expression	significantly increased P-gp expression	2270 ± 42.4
